The assay concerns the target T1, BRD4(BD1) (Homo sapiens, UniProt O60885).
T1 construct: a BRD4(BD1) synthetic gene that includes a TEV cleavage site was purchased from LifeTechnology; made in house
As to the kind of experiment: HTRF assay on robot-synthesised focused library (Example 4 bis). The format is binding. To be noted: Table 2 bis; focused library without intermediary purification; read-out: HTRF (IC50, μM), effect on BRD4(BD1) activity. As to the method: The Accelerator Synthetizer SLT100 allows the efficient synthesis of the focused library in 96 well plates that can be directly transferred to a Labcyte Access/Echo® Laboratory Workstation to assess the compounds for their ability to disrupt bromodmain/histone complexes using the homogeneous time-resolved fluorescence (HTRF®) technology (IC50 μM).
After the efficient synthesis of the focused library in 96 well plates with the Accelerator Synthetizer SLT100, the focused library has been directly transferred to a Labcyte Access/Echo® Laboratory Workstation to assess the compounds for their ability to disrupt bromodmain/histone complexes using the homogeneous time-resolved fluorescence (HTRF®) technology (IC50 μM, table 2bis).
(In general: In TR-FRET formats the signal depends on donor and acceptor labels being close together.)

For 45 compounds, IC50 results are on record in patent US11225481B2 (Centre national de la recherche scientifique, priority 2015, dated 2022).

Broadly, the IC50 is the point on the concentration scale where inhibition reaches its midpoint.

Regarding `CCCCn1c(=O)[nH]c(=O)c2c1nc(CSc1nc3nc(C)c(CCC(=O)O)c(C)n3n1)n2CC` [Compound 33], the IC50 was 8.5 µM. To `CCCCn1c(=O)[nH]c(=O)c2c1nc(CSc1nc3nc(C)c(CC(=O)O)c(C)n3n1)n2CC` [Compound 34] belongs 44.5 µM; to `CCCCn1c(=O)[nH]c(=O)c2c1nc(CSc1nc3ccc(C(=O)O)cc3o1)n2CC` [Compound 35], 19.2 µM. To `CCCCn1c(=O)[nH]c(=O)c2c1nc(CSc1nc3cc(C(=O)O)ccc3o1)n2CC` [Compound 36] belongs 3 µM; to `CCCCn1c(=O)[nH]c(=O)c2c1nc(CSc1nc3cc(S(=O)(=O)CC)ccc3o1)n2CC` [Compound 37], 16.6 µM. Take `CCCCn1c(=O)[nH]c(=O)c2c1nc(CSc1nc3cc(C(=O)OC)ccc3o1)n2CC` [Compound 38]: the IC50 stood at 48.2 µM.

For the compound `CCCCn1c(=O)[nH]c(=O)c2c1nc(CSc1nc3cc(S(=O)(=O)N4CCOCC4)ccc3[nH]1)n2CC` [Compound 39], the IC50 was 38.2 µM.

With `CCCCn1c(=O)[nH]c(=O)c2c1nc(CSc1nc3ccc([NH2+][O-])cc3[nH]1)n2CC` [Compound 40], the IC50 is 33 µM. In the case of `CCCCn1c(=O)[nH]c(=O)c2c1nc(CSc1nc3cc(C(=O)OCC)ccc3n1CC)n2CC` [Compound 41], the IC50 was found to be 6.4 µM. To `CCCCn1c(=O)[nH]c(=O)c2c1nc(COc1nc3cc(C(=O)O)ccc3[nH]1)n2CC` [Compound 42] belongs 45.3 µM; to `CCCCn1c(=O)[nH]c(=O)c2c1nc(COc1ccc(-n3[nH]c(C(=O)O)cc3=O)nn1)n2CC` [Compound 43], 33.4 µM; to `CCCCn1c(=O)[nH]c(=O)c2c1nc(COc1ccc(-n3ncc(C(=O)O)c3CC)nn1)n2CC` [Compound 44], 21.9 µM. As for `CCCCn1c(=O)[nH]c(=O)c2c1nc(COc1ccc(C3CNCC3C(=O)O)cc1)n2CC` (stereo not drawn) [Compound 45], the IC50 was 11.6 µM. Consider `CCCCn1c(=O)[nH]c(=O)c2c1nc(CSc1nnc(-c3ccccc3)c(-c3ccccc3)n1)n2CC` [Compound 46], for which the IC50 came to 20.1 µM.

For `CCCCn1c(=O)[nH]c(=O)c2c1nc(COc1ccc3c(=O)c(Oc4ccccc4)coc3c1)n2CC` [Compound 47], the half-maximal inhibitory concentration (IC50) was 30.1 µM.

Regarding `CCCCn1c(=O)[nH]c(=O)c2c1nc(COc1ccc3c(=O)c(-c4ccccc4)coc3c1)n2CC` [Compound 48], the IC50 stood at 35.2 µM.

For the compound `CCCCn1c(=O)[nH]c(=O)c2c1nc(COc1cn3cc(C(=O)O)ccc3n1)n2CC` [Compound 49], the IC50 was found to be 35.1 µM. In the case of `CCCCn1c(=O)[nH]c(=O)c2c1nc(COc1cccc(C(=O)NCc3ccccc3)c1)n2CC` [Compound 51], the IC50 stood at 30.2 µM. Next, `CCCCn1c(=O)[nH]c(=O)c2c1nc(COc1ccc(Nc3nc4ccccc4c(=O)[nH]3)cc1)n2CC` [Compound 52]: 33 µM; `CCCCn1c(=O)[nH]c(=O)c2c1nc(CSc1nc(O)c3c(C)cc(C)nc3n1)n2CC` [Compound 53]: 4.4 µM; `CCCCn1c(=O)[nH]c(=O)c2c1nc(CSc1nc3nc(C)ccc3o1)n2CC` [Compound 54]: 7.1 µM. In the case of `CCn1c(CSc2nc3nc(C)c(CCC(=O)O)c(C)n3n2)nc2c1c(=O)[nH]c(=O)n2Cc1ccc(Cl)cc1` [Compound 55], the IC50 is 14.2 µM. To `CCn1c(CSc2nc3ccc(C(=O)O)cc3o2)nc2c1c(=O)[nH]c(=O)n2Cc1ccc(Cl)cc1` [Compound 56] belongs 13.2 µM; to `CCn1c(CSc2nc3cc(C(=O)O)ccc3o2)nc2c1c(=O)[nH]c(=O)n2Cc1ccc(Cl)cc1` [Compound 57], 7.5 µM. In the case of `CCn1c(CSc2nc3cc(S(=O)(=O)N4CCCCC4)ccc3o2)nc2c1c(=O)[nH]c(=O)n2Cc1ccc(Cl)cc1` [Compound 58], the half-inhibitory concentration (IC50) worked out at 2.7 µM. Next, `CCn1c(CSc2nc3cc(S(=O)(=O)CC)ccc3o2)nc2c1c(=O)[nH]c(=O)n2Cc1ccc(Cl)cc1` [Compound 59]: 6.9 µM; `CCn1c(CSc2nc3cc([N+](=O)[O-])ccc3o2)nc2c1c(=O)[nH]c(=O)n2Cc1ccc(Cl)cc1` [Compound 60]: 8.4 µM. Next, `CCn1c(CSc2nc3cc(S(=O)(=O)N(C)C)ccc3o2)nc2c1c(=O)[nH]c(=O)n2Cc1ccc(Cl)cc1` [Compound 61]: 4.7 µM; `CCn1c(CSc2nc3cc(S(=O)(=O)N4CCOCC4)ccc3o2)nc2c1c(=O)[nH]c(=O)n2Cc1ccc(Cl)cc1` [Compound 62]: 8.9 µM; `CCn1c(CSc2nc3cc(C(=O)OC)ccc3o2)nc2c1c(=O)[nH]c(=O)n2Cc1ccc(Cl)cc1` [Compound 63]: 8.9 µM. Next, `CCn1c(CSc2nc3ccc(C(=O)O)cc3[nH]2)nc2c1c(=O)[nH]c(=O)n2Cc1ccc(Cl)cc1` [Compound 64]: 5.1 µM; `CCn1c(CSc2nc3cc(S(=O)(=O)N4CCOCC4)ccc3[nH]2)nc2c1c(=O)[nH]c(=O)n2Cc1ccc(Cl)cc1` [Compound 65]: 32.7 µM; `CCOC(=O)c1ccc2c(c1)nc(SCc1nc3c(c(=O)[nH]c(=O)n3Cc3ccc(Cl)cc3)n1CC)n2CC` [Compound 66]: 16.8 µM. For the compound `CCCCNS(=O)(=O)c1ccc2nc(SCc3nc4c(c(=O)[nH]c(=O)n4Cc4ccc(Cl)cc4)n3CC)[nH]c2c1` [Compound 67], the IC50 came out at 8.9 µM. To `CCn1c(COc2nc3cc(C(=O)O)ccc3[nH]2)nc2c1c(=O)[nH]c(=O)n2Cc1ccc(Cl)cc1` [Compound 68] belongs 35.5 µM; to `CCn1c(COc2ccc(-n3[nH]c(C(=O)O)cc3=O)nn2)nc2c1c(=O)[nH]c(=O)n2Cc1ccc(Cl)cc1` [Compound 69], 8.4 µM; to `CCc1c(C(=O)O)cnn1-c1ccc(OCc2nc3c(c(=O)[nH]c(=O)n3Cc3ccc(Cl)cc3)n2CC)nn1` [Compound 70], 6.5 µM. In the case of `CCn1c(COc2nnc(-c3ccccc3)c(-c3ccccc3)n2)nc2c1c(=O)[nH]c(=O)n2Cc1ccc(Cl)cc1` [Compound 71], the half-inhibitory concentration (IC50) stood at 17.8 µM. Take `CCn1c(COc2ncc(-c3ccc(C(=O)O)s3)cc2C)nc2c1c(=O)[nH]c(=O)n2Cc1ccc(Cl)cc1` [Compound 72]: the IC50 amounted to 4.4 µM.

`CCn1c(COc2ccc(C3NC(C(=O)O)CS3)cc2)nc2c1c(=O)[nH]c(=O)n2Cc1ccc(Cl)cc1` (stereo not drawn) [Compound 73]: the IC50 amounted to 7.5 µM. For `CCn1c(CSc2nnc(Cc3cc(C)nn3C)n2CC2CCCO2)nc2c1c(=O)[nH]c(=O)n2Cc1ccc(Cl)cc1` (stereo not drawn) [Compound 74], the IC50 is 5.5 µM. With `CCn1c(COc2cccc(C(=O)NCc3ccccc3)c2)nc2c1c(=O)[nH]c(=O)n2Cc1ccc(Cl)cc1` [Compound 75], the IC50 turned out to be 3.9 µM. In the case of `CCn1c(COc2ccc(Nc3nc4ccccc4c(=O)[nH]3)cc2)nc2c1c(=O)[nH]c(=O)n2Cc1ccc(Cl)cc1` [Compound 76], the IC50 stood at 12.7 µM. For the compound `CCn1c(CSc2nc3nc(C)c(Br)cc3[nH]2)nc2c1c(=O)[nH]c(=O)n2Cc1ccc(Cl)cc1` [Compound 79], the 50% inhibitory concentration (IC50) stood at 4.2 µM. To `CCn1c(CSc2nc3ncccn3n2)nc2c1c(=O)[nH]c(=O)n2Cc1ccc(Cl)cc1` [Compound 80] belongs 10.6 µM.
